Reference: patent publication US20050130252A1, “Stabilized susceptibility tests of aerobic pathogens” (Wyeth Holdings Corporation, priority 2003, published 2005)
Values after ≈ are worked out from the molar mass of the structure shown. Read-outs that look alike come from different tables or passages of the source.

Key:
Test in all cases: Broth microdilution MIC
Type in all cases: cell-based
[1] = tested on: Staphylococcus aureus GC1131 Clinical isolate; settings: for In Vitro Activity of Tigecycline: Broth, S. aureus GC1131; for MIC: Staphylococcus aureus, S. aureus GC1131 (Clinical), read-out: Minimal Inhibitory Concentration
Experimental: (§1) The process for preparing susceptibility test medium are the following steps: • a. Preparing Mueller Hinton Broth II medium by adding 22 grams powdered media to 1.0 liter distilled water; • b. Autoclaving (121° C., 15 psi, 15 minutes) and cooling the medium; • c. Adding Oxyrase® up to about 10% final volume and keeping at 35-37° C. in an incubator for 30 minutes; • d. Adding about 50 μL to each well of a 96 well microtiter plate; • e. Weighing drug and adding broth to drug to bring up to about (standard 128 μg/ml); • f. Adding 50 μL of the drug to the first column of the titer plate; • g. Diluting by two-fold serial diluting across or down the plate. • h. Preparing a Prompt™ inoculum at 10^8 CFU/ml; • i. Diluting inoculum 1:100 in the broth at […] in 9.9 ml (1:100) is 10^6 colony forming units (CFU) forming the adjusted inoculum; • j. Adding 50 μL of the adjusted inoculum to the wells of the microtiter plate; • k. Incubating the plates at 35-37° C. for 18-22 hours; and • l. Reading, with the unaided eye, the MIC.
(§2) The in vitro activities of tigecycline and control antibiotics were determined by the broth microdilution method as recommended by the NCCLS. (National Committee for Clinical Laboratory Standards, 2003. Methods for Dilution Antimicrobial Susceptibility Tests for Bacteria That Grow Aerobically; Approved Standards: M7-A6, Sixth ed, vol. 23., National Committee for Clinical Laboratory Standards Wayne, Pa.) was used for the standard procedures. MBH with 5% lysed horse blood was used for testing S. pneumoniae and Haemophilus Test Medium was used for testing H. influenzae. Oxyrase® (Oxyrase Inc, Mansfield, Ohio) was used according to the manufacturer's instructions by adding 1 ml of Oxyrase® to 50 ml of media. Media age studies were performed by preparing MHB in multiple flasks, then storing the media under various conditions. MICs were usually performed in duplicate on each day of testing. Storage under anaerobic conditions was conducted in an anaerobic chamber (MACS MG 1000, Don Whitley Scientific LTD). The pH of the media was determined by pH meter (Corning 430). A comparison of the in vitro activity of tigecycline by agar and broth dilution methodolgies with and without Oxyrase® against clinical isolates is shown in Table 1.

[2] = tested on: S. pneumoniae GC1894 (Clinical); settings: Streptococcus pneumoniae, read-out: Minimal Inhibitory Concentration
Experimental: as §1, §2

[3] = tested on: Staphylococcus aureus GC4536 Smith MP -In Vivo; settings: for In Vitro Activity of Tigecycline: Broth, S. aureus GC4536 Smith; for MIC: Staphylococcus aureus, S. aureus GC4536 (Smith MP - In Vivo), read-out: Minimal Inhibitory Concentration
Experimental: as §1, §2

[4] = tested on: H. influenzae GC6896 (ATCC Control); settings: Haemophilus influenzae, read-out: Minimal Inhibitory Concentration
Experimental: as §1, §2

[5] = tested on: Staphylococcus aureus GC6467 Clinical - tet(M) + (K); settings: S. aureus GC6467 tet(M) + (K)
Experimental: as §1, §2

[6] = tested on: Enterococcus faecalis GC2242 Vancomycin-Resistant; settings: for In Vitro Activity of Tigecycline: Broth, E. faecalis GC2242 Vancomycin-Resistant; for MIC: Enterococcus faecalis, read-out: Minimal Inhibitory Concentration
Experimental: as §1, §2

[7] = tested on: M. catarrhalis GC6907 (Clinical); settings: Moraxella catarrhalis, read-out: Minimal Inhibitory Concentration
Experimental: as §1, §2

[8] = tested on: Escherichia coli GC2270 tet(M); settings: for MIC: Escherichia coli, read-out: Minimal Inhibitory Concentration
Experimental: as §1, §2

[9] = tested on: Enterococcus faecalis GC2267 tet(L) + (M) + (S); settings: for In Vitro Activity of Tigecycline: Broth, E. faecalis GC2267 tet(L) + (M) + (S); for MIC: Enterococcus faecalis, read-out: Minimal Inhibitory Concentration
Experimental: as §1, §2

[10] = tested on: S. pneumoniae GC4465 (Clinical); settings: Streptococcus pneumoniae, read-out: Minimal Inhibitory Concentration
Experimental: as §1, §2

[11] = tested on: Escherichia coli GC1073 tet(B) wt; settings: for In Vitro Activity of Tigecycline: Broth, E. coli GC1073 tet(B) wt
Experimental: as §1, §2

[12] = 336 h, Aged Media (two weeks at RT)

Structure (SMILES): CN(C)c1cc(NC(=O)CNC(C)(C)C)c(O)c2c1C[C@H]1C[C@H]3[C@H](N(C)C)C(O)=C(C(N)=O)C(=O)[C@@]3(O)C(O)=C1C2=O [Tigecycline, tigecycline]
- In Vitro Activity of Tigecycline ([1]; Oxyrase (2%)): 0.25
- In Vitro Activity of Tigecycline ([1]; no Oxyrase): 0.50
- MIC [1, 12]: 0.25 µg/mL (≈ 0.427 µM)
- MIC ([1]; Fresh Media): 0.25 µg/mL (≈ 0.427 µM)
- MIC [2, 12]: 0.03 µg/mL (≈ 0.0512 µM)
- MIC ([2]; Fresh Media): < 0.008 µg/mL
- In Vitro Activity of Tigecycline ([3]; Oxyrase (2%)): 0.12
- In Vitro Activity of Tigecycline ([3]; no Oxyrase): 0.50
- MIC [3, 12]: 0.25 µg/mL (≈ 0.427 µM)
- MIC ([3]; Fresh Media): 0.12 µg/mL (≈ 0.205 µM)
- MIC [4, 12]: 0.5 µg/mL (≈ 0.854 µM)
- MIC ([4]; Fresh Media): 0.25 µg/mL (≈ 0.427 µM)
- In Vitro Activity of Tigecycline ([5]; Oxyrase (2%)): 0.50
- In Vitro Activity of Tigecycline ([5]; no Oxyrase): 1
- In Vitro Activity of Tigecycline ([6]; Oxyrase (2%)): 0.12
- In Vitro Activity of Tigecycline ([6]; no Oxyrase): 0.50
- MIC ([6]; 336 h): 0.12 µg/mL (≈ 0.205 µM)
- MIC [6]: 0.06 µg/mL (≈ 0.102 µM)
- MIC [7, 12]: 0.03 µg/mL (≈ 0.0512 µM)
- MIC ([7]; Fresh Media): 0.015 µg/mL (≈ 0.0256 µM)
- In Vitro Activity of Tigecycline ([8]; Broth, no Oxyrase, E. coli GC2270 tet(M)): 0.50
- MIC ([8]; 336 h): 0.25 µg/mL (≈ 0.427 µM)
- MIC [8]: 0.06 µg/mL (≈ 0.102 µM)
- In Vitro Activity of Tigecycline ([9]; Oxyrase (2%)): 0.12
- In Vitro Activity of Tigecycline ([9]; no Oxyrase): 0.50
- MIC ([9]; 336 h): 0.25 µg/mL (≈ 0.427 µM)
- MIC [9]: 0.12 µg/mL (≈ 0.205 µM)
- MIC [10, 12]: 0.03 µg/mL (≈ 0.0512 µM)
- MIC ([10]; Fresh Media): < 0.008 µg/mL
- In Vitro Activity of Tigecycline ([11]; Oxyrase (2%)): 0.12
- In Vitro Activity of Tigecycline ([11]; no Oxyrase): 0.50
- MIC ([11]; Escherichia coli, read-out: Minimal Inhibitory Concentration): 0.12 µg/mL (≈ 0.205 µM)
